In patent US11639350B2, “Heteroaryldihydropyrimidine derivatives and methods of treating hepatitis B infections” (Janssen Pharmaceutica NV, priority 2018, dated 2023):
pEC50: −log10 of the molar value. Like-named read-outs stand apart in the source and are kept apart here.

Tests used:
[1] = Cytotoxicity determination in HepG2.2.15 cells (CCK-8); format: cell-based; settings: human, 6 days of compound treatment, CCK-8, highest concentration 100 μM
Protocol: (§1) HBV replication inhibition by the compounds of this invention as well as cytotoxicity determination was determined in cells infected or transfected with HBV, or cells with stably integrated HBV, such as HepG2.2.15 cells (Sells et al. 1987). The method used herein is as follows.
(§2) The HepG2.2.15 cells were seeded into 96-well plate in 2% FBS (Fetal bovine serum) culture medium at the density of 40,000 cells/well and 5,000 cells/well for HBV inhibitory activity and cytotoxicity determination, respectively. After seeding, the cell plates were incubated at 37° C., 5% CO2 overnight. The next day, medium containing compounds were added to treat the cells for 6 days with medium refreshed once in the middle of the treatment. Eight dose points with 3 folds dilution of each compound were adopted and the highest concentration of the compounds was 10 μM and 100 μM for HBV inhibitory activity and cytotoxicity determination, respectively.
After 6 days of compounds treatment, 20 μl CCK-8 (Cell Counting Kit-8 (Tianjin Biolite company)) reagents were added to each well of cytotoxicity assay plates, the plate was incubated at 37° C., 5% CO2 for 2.5 hours and the absorbance at 450 nm wavelength was measured, at the same time the absorbance at 630 nm wavelength was read as reference.
(§3) EC50 and CC50 values are calculated by the GraphPad Prism software and are averages where multiple measurements were made. EC50 values for the other exemplified compounds were either not measured or higher than 1 μM.

[2] = system: HBV; assay: HBV inhibitory activity: HBV DNA in the culture medium of HepG2.2.15 cells by q-PCR; format: cell-based
Protocol: as §1, §2
The HBV DAN change in the cell culture medium induced by the compounds was measured by q-PCR (quantitative polymerase chain reaction) method. The HBV DNA in the culture medium was extracted using QIAamp 96 DNA Blood Kit according to the manual and then quantified by q-PCR using the primers and probe in the table below: […]
as §3

[3] = Hepatitis B virus, HepG2.2.15, 144 h, HepG2.2.15 cells, 6 days of compound treatment, HBV DNA in culture medium by q-PCR, highest concentration 10 μM, read-out: EC50

Row | Compound | CC50 at 6 days [1] [nM] | pEC50 [2, 3] | pEC50 ([2]; Hepatitis B virus, HepG2.2.15, 144 h) | pEC50 ([2]; HepG2.2.15 cells, 6 days of compound treatment, HBV DNA in culture medium by q-PCR, highest concentration 10 μM, read-out: EC50)
1 | CNS(=O)(=O)N1CCC(C2=C(C(=O)OC)C(c3cccc(F)c3Cl)N=C(c3nccs3)N2)CC1 (single isomer, unassigned) [Compound 115B, 4-(2-Chloro-3-fluoro-phenyl)-6-(1-methylsulfamoyl-piperidin-4-yl)-2-thiazol-2-yl-1,4-dihydro-pyrimidine-5-carboxylic Acid Methyl Ester] | 19100 | 6.47 |  | 
2 | COC(=O)C1=C([C@H]2CC[C@H](NS(=O)(=O)C3COC3)CC2)NC(c2nccs2)=NC1c1ccc(F)cc1Cl (single isomer, unassigned) [Compound 384B, (trans)-Methyl 4-(2-chloro-4-fluorophenyl)-6-(4-(oxetane-3-sulfonamido)cyclohexyl)-2-(thiazol-2-yl)-1,4-dihydropyrimidine-5-carboxylate] | 34000 | 7.19 |  | 
3 | COC(=O)C1=C(C2CCN(S(=O)(=O)[C@H]3C[C@H](C(=O)O)C3)C2)NC(c2nccs2)=NC1c1ccc(F)cc1Cl (relative stereo) [Compound 367A, (trans)-3-((3-(6-(2-chloro-4-fluorophenyl)-5-(methoxycarbonyl)-2-(thiazol-2-yl)-3,6-dihydropyrimidin-4-yl)pyrrolidin-1-yl)sulfonyl)cyclobutanecarboxylic Acid] | 33400 | 6.52 |  | 
4 | COC(=O)C1=C(C2CCN(S(=O)(=O)C(F)F)CC2)NC(c2nccs2)=NC1c1ccc(F)c(F)c1Cl (single isomer, unassigned) [Compound 166A, Methyl 4-(2-chloro-3,4-difluorophenyl)-6-(1-((difluoromethyl)sulfonyl)piperidin-4-yl)-2-(thiazol-2-yl)-1,4-dihydropyrimidine-5-carboxylate] | > 50000 | 7.21 |  | 
5 | COC(=O)C1=C(C2CCN(S(=O)(=O)CCOCCO)CC2)NC(c2nccs2)=NC1c1ccc(F)cc1Cl (stereo not drawn) [Compound 484, Methyl 4-(2-chloro-4-fluorophenyl)-6-(1-((2-(2-hydroxyethoxy)ethyl)sulfonyl)piperidin-4-yl)-2-(thiazol-2-yl)-1,4-dihydropyrimidine-5-carboxylate] | 47000 |  | 8.30 | 
6 | COCCOCCS(=O)(=O)N1CCC(C2=C(C(=O)OC)C(c3ccc(F)cc3Cl)N=C(c3nccs3)N2)CC1 (stereo not drawn) [Compound 464, Methyl 4-(2-chloro-4-fluorophenyl)-6-(1-((2-(2methoxyethoxy)ethyl)sulfonyl)piperidin-4-yl)-2-(thiazol-2-yl)-1,4-dihydropyrimidine-5-carboxylate] | 29400 | > 8.34 |  | 
7 | COC(=O)C1=C(C2CCN(S(C)(=O)=O)CC2)NC(c2nccs2)=NC1c1cccc(F)c1Cl (stereo not drawn) [Compound 112, Methyl 4-(2-chloro-3-fluorophenyl)-6-(1-(methylsulfonyl)-piperidin-4-yl)-2-(thiazol-2-yl)-1,4-dihydropyrimidine-5-carboxylate] | 43200 | 6.53 |  | 
8 | COC(=O)C1=C(C2CCC(C(=O)O)C2)NC(c2nccs2)=NC1c1cccc(F)c1Cl (stereo not drawn) [Compound 77, 3-(6-(2-Chloro-3-fluorophenyl)-5-(methoxycarbonyl)-2-(thiazol-2-yl)-3,6-dihydropyrimidin-4-yl)cyclopentanecarboxylic Acid] | 34200 | 7.15 |  | 
9 | COC(=O)C1=C(C2CCN(S(=O)(=O)C(C)(C)C(=O)O)CC2)NC(c2nccs2)=NC1c1ccc(F)cc1Cl (stereo not drawn) [Compound 7, 2-((4-(6-(2-Chloro-4-fluorophenyl)-5-(methoxycarbonyl)-2-(thiazol-2-yl)-3,6-dihydro-pyrimidin-4-yl)piperidin-1-yl)sulfonyl)-2-methylpropanoic Acid] | > 100000 | 6.77 |  | 
10 | COC(=O)C1=C(C2CCN(S(C)(=O)=O)CC2)NC(c2nccs2)=NC1c1ccc(F)c(F)c1Cl (single isomer, unassigned) [Compound 59B, Methyl 4-(2-chloro-3,4-difluorophenyl)-6-(1-(methylsulfonyl)-piperidin-4-yl)-2-(thiazol-2-yl)-1,4-dihydropyrimidine-5-carboxylate] | 27900 | 6.41 |  | 
11 | COC(=O)C1=C([C@H]2CC[C@H](NS(=O)(=O)CCO)CC2)NC(c2nccs2)=NC1c1ccc(F)cc1Cl (relative stereo) [Compound 187B, (trans)-Methyl 4-(2-chloro-4-fluorophenyl)-6-(4-(2-hydroxyethylsulfonamido)cyclohexyl)-2-(thiazol-2-yl)-1,4-dihydropyrimidine-5-carboxylate] | 18900 | 7.49 |  | 
12 | COC(=O)C1=C([C@H]2C[C@@H](NS(C)(=O)=O)C2)NC(c2nccs2)=NC1c1ccc(F)cc1Cl (single isomer, unassigned) [Compound 206D, (cis)-Methyl 4-(2-chloro-4-fluorophenyl)-6-(3-(methylsulfonamido)cyclobutyl)-2-(thiazol-2-yl)-1,4-dihydropyrimidine-5-carboxylate] | 39200 | 6.41 |  | 
13 | COC(=O)C1=C(C2CC(C(=O)OC)C2)NC(c2nccs2)=NC1c1ccc(F)cc1Cl (single isomer, unassigned) [Compound 85C, 4-(2-Chloro-4-fluoro-phenyl)-6-(3-methoxycarbonyl-cyclobutyl)-2-thiazol-2-yl-1,4-dihydro-pyrimidine-5-carboxylic Acid Methyl Ester] | 95400 | 6.22 |  | 
14 | COC(=O)C1=C(C2CC3CCC(C2)N3S(C)(=O)=O)NC(c2nccs2)=NC1c1cccc(F)c1Cl (single isomer, unassigned) [Compound 39B, 4-(2-Chloro-3-fluoro-phenyl)-6-(8-methanesulfonyl-8-aza-bicyclo[3.2.1]oct-3-yl)-2-thiazol-2-yl-1,4-dihydro-pyrimidine-5-carboxylic Acid Methyl Ester] | 30600 | 7.00 |  | 
15 | COC(=O)C1=C(C23CC(NS(=O)(=O)CCO)(C2)C3)NC(c2nccs2)=NC1c1ccc(F)cc1Cl (stereo not drawn) [Compound 390B, Methyl 4-(2-chloro-4-fluorophenyl)-6-(3-(2-hydroxyethylsulfonamido)bicyclo[1.1.1]pentan-1-yl)-2-(thiazol-2-yl)-1,4-dihydropyrimidine-5-carboxylate] | 45300 | 7.27 |  | 
16 | COCCOCCOCCOCCS(=O)(=O)N1CCC(C2=C(C(=O)OC)C(c3ccc(F)cc3Cl)N=C(c3nccs3)N2)CC1 (stereo not drawn) [Compound 460, Methyl 6-(1-(2,5,8,11-tetraoxatridecan-13-ylsulfonyl)piperidin-4-yl)-4-(2-chloro-4-fluorophenyl)-2-(thiazol-2-yl)-1,4-dihydropyrimidine-5-carboxylate] | 19900 | 8.10 |  | 
17 | COC(=O)C1=C(C2CCN(S(C)(=N)=O)CC2)NC(c2nccs2)=NC1c1ccc(F)c(F)c1Cl (stereo not drawn) [Compound 205A, methyl 4-(2-chloro-3,4-difluorophenyl)-6-(1-(S-methylsulfonimidoyl)piperidin-4-yl)-2-(thiazol-2-yl)-1,4-dihydropyrimidine-5-carboxylate] | 42300 |  |  | 8.15
18 | CCOC(=O)C1=C(C2CCN(S(=O)(=O)C3CC(CC(=O)O)C3)CC2)NC(c2nccs2)=NC1c1ccc(F)c(F)c1Cl (stereo not drawn) [Compound 482A, 2-(3-((4-(6-(2-Chloro-3,4-difluorophenyl)-5-(ethoxycarbonyl)-2-(thiazol-2-yl)-3,6-dihydropyrimidin-4-yl)piperidin-1-yl)sulfonyl)cyclobutyl)acetic Acid] | 15300 | 8.22 |  | 
